Laboratory results: US6992088B2, “Nitro and amino substituted heterocycles as topoisomerase I targeting agents” (Rutgers, The State University of New Jersey, priority 2002, dated 2006)

Legend:
RPMI8402 = assay: MTT-microtiter plate tetrazolinium cytotoxicity assay, RPMI8402; format: cell-based; settings: Homo sapiens, RPMI 8402, RPMI8402 cells, continuous exposure 3-4 days
Experimental: (§1) Test B. Inhibition of Cell Growth: MTT-microtiter Plate Tetrazolinium Cytotoxicity Assay (RPMI 8402, CPT-K5, U937, U937/CR Cells)
(§2) The cytotoxicity is determined using the MTT-microtiter plate tetrazolinium cytotoxicity assay (MTA), see Chen A. Y. et al. Cancer Res. 1993, 53, 1332; Mosmann, T. J., J. Immunol. Methods 1983, 65, 55; and Carmichael, J. et al. Cancer Res. 1987, 47, 936. The human lymphoblast RPMI 8402 and its camptothecin-resistant variant cell line, CPT-K5 were provided by Dr. Toshiwo Andoh (Anchi Cancer Research Institute, Nagoya, Japan), see Andoh, T.; Okada, K, Adv. in Pharmacology 1994, 29B, 93. Human U-937 myeloid leukemia cells and U-937/CR cells were described by Rubin et al., J. Biol. Chem., 1994, 269, 2433-2439. The cytotoxicity assay is performed by using 96-well microtiter plates using 2000 cells/well, in […] of growth medium. Cells are grown in suspension at 37° C. in 5% CO2 and maintained by regular passage in RPMI medium supplemented with 10% heat-inactivated fetal bovine serum, L-glutamine (2 mM), penicillin (100U/mL), and streptomycin (0.1 mg/mL). For determination of IC50, cells are exposed continuously for 3-4 days to varying concentrations of drug, and MTT assays were performed at the end of the fourth day. […] All assays are performed at least twice in 6 replicate wells. […]

CPT-K5 = assay: MTT-microtiter plate tetrazolinium cytotoxicity assay, CPT-K5 (camptothecin-resistant variant); format: cell-based; settings: Homo sapiens, CPT-K5 cells (camptothecin-resistant variant of RPMI 8402), continuous exposure 3-4 days
Experimental: as §1, §2

KB3-1 = assay: MTT-microtiter plate tetrazolinium cytotoxicity assay, KB3-1; format: cell-based; settings: Homo sapiens, KB 3-1, KB3-1 cells
Experimental: as §1, §2

KBV-1 = assay: MTT-microtiter plate tetrazolinium cytotoxicity assay, KBV-1; format: cell-based; settings: Homo sapiens, KB-V1, KBV-1 cells
Experimental: as §1, §2

KBH5.0 = assay: MTT-microtiter plate tetrazolinium cytotoxicity assay, KBH5.0; format: cell-based; settings: KBH5.0 cells
Experimental: as §1, §2

HL60 = assay: MTT-microtiter plate tetrazolinium cytotoxicity assay, HL60; format: cell-based; settings: Homo sapiens, HL-60, HL60 cells
Experimental: as §1, §2

HL60/MX2 = assay: MTT-microtiter plate tetrazolinium cytotoxicity assay, HL60/MX2; format: cell-based; settings: Homo sapiens, HL60/MX2 cells
Experimental: as §1, §2

melting point: 191 to 192 °C
Compound: CN(C)CCCn1c2c(c3ccc([N+](=O)[O-])cc3c1=O)C(=O)c1cc3c(cc1-2)OCO3 [Compound B]
IC50 (RPMI8402): 0.003 µM
IC50 (CPT-K5): 2.4 µM
IC50 (KB3-1): 0.004 µM
IC50 (KBV-1): 0.004 µM
IC50 (KBH5.0): 0.004 µM
IC50 (HL60): 0.003 µM
IC50 (HL60/MX2): 0.003 µM
